Results on 60 compounds are retold here after US7022736B2, “Enzyme inhibitors” (Istituto Di Ricerche Di Biologia Molecolare P Angeletti SpA, priority 1998, dated 2006).

Structures are written as SMILES.

T1 sequence (P26663 2420-3010): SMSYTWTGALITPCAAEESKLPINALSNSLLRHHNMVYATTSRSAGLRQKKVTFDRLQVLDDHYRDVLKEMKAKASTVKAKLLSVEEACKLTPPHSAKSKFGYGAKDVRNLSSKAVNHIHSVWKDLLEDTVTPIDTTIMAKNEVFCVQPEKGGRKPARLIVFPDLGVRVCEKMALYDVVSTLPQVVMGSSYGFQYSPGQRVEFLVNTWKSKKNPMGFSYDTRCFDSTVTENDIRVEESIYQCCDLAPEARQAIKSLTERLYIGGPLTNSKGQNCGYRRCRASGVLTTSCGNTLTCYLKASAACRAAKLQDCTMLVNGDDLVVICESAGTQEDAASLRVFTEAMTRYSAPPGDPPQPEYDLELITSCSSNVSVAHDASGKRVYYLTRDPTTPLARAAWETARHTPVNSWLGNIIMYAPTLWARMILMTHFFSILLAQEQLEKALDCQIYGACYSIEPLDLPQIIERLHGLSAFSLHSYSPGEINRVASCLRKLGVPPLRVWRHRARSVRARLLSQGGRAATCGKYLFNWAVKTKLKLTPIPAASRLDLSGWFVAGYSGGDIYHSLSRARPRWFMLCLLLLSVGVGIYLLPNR

One assay concerns the target T1, HCV RdRp (NS5B RNA-dependent RNA polymerase) (Hepatitis C virus genotype 1b, UniProt P26663).
T1 construct: The HCV NS5B protein is the viral RdRp; made in house; host or cells: insect cells infected with recombinant baculovirus
The assay is described as follows: Inhibition of hepatitis C virus RdRp (poly(A)/oligo(U), [3H]UTP incorporation). It is filed as biochemical. The settings on record: Tables I-VIII; 20 nM NS5B, 1 hour at 22° C.; read-out: IC 50 (μM), HCV-polymerase. As for the experimental part: In initial tests, the compounds were tested to see if they were effective as inhibitors of the RNA-dependent RNA polymerase (RdRp) of hepatitis C virus (HCV). The HCV NS5B protein is the viral RdRp; compounds capable of interfering with the activity of this enzyme are thus expected to block viral replication.
Test for Inhibition of Hepatatis C Virus RdRp
WO96/37619 describes the production of recombinant HCV RdRp from insect cells infected with recombinant baculovirus encoding the enzyme. […] The reference describes a polymerisation assay using poly (A) as a template and oligo (U) as a primer. Incorporation of tritiated UTP is quantified by measuring acid-insoluble radioactivity. The present inventors have employed this assay to screen the various compounds described above as inhibitors of HCV RdRp and other virally encoded polymerases.
Incorporation of radioactive UMP was measured as follows. The standard reaction (100 μl) was carried out in a buffer containing 20 mM tris/HCl pH 7.5, 5 mM MgCl2, 1 mM DTT, 50 mM NaCl, 1 mM EDTA, 2 OU Rnasin (Promega), 0.05% Triton X-100, 1 μCi[^3H] UTP (40 Ci/mmol,NEN), 10 μM UTP and 10 μg/ml poly (A). Oligo (U)12 (1 μg/ml, Genset) was added as a primer. The final NSSB enzyme concentration was 20 nM. After 1 hour incubation at 22° C. the reaction was stopped by adding 100 μl of 20% TCA and applying samples to DE81 filters. The filters were washed thoroughly with 5% TCA containing 1M Na2HPO4/NaH2PO4, pH 7.0, rinsed with water and then ethanol, air dried, and the filter-bound radioactivity was measured in the scintillation counter. By carrying out the reaction in the presence of various concentrations of each of the compounds set out above it was possible to determine IC50 values for each compound with the formula: % residual activity=100/(1+[I]/IC50)^s where [I] is the inhibitor concentration and “s” is the slope of the inhibition curve. Test for Inhibition of Hepatitis B Virus Polymerase
In the case of `Cc1c[nH]c(C)c1C(=O)C=C(O)C(=O)O` [Example 219], the IC50 amounted to 23.7 µM.

Take `Cc1ccsc1C(=O)C=C(O)C(=O)O` [Example 191]: the IC50 stood at 10 µM.

For the compound `O=C(O)C(O)=CC(=O)c1cccc(OCc2cc(-c3ccccc3)on2)c1` [Example 103], the IC50 is 6 µM.

As to `O=C(O)C(O)=CC(=O)c1ccc(Br)s1` [Example 198], the IC50 was determined as 7.9 µM.

With `O=C(O)C(O)=CC(=O)c1ccc(Cc2cccc(Cl)c2)s1` [Example 211], the IC50 was determined as 82 µM.

As for `CCCCCOc1ccccc1C(=O)C=C(O)C(=O)O` [Example 59], the IC50 is 25.3 µM.

Regarding `O=C(O)C(O)=CC(=O)c1cccc(NS(=O)(=O)c2ccc(Cl)c(Cl)c2)c1` [Example 136], the IC50 stood at 0.2 µM.

`N#Cc1ccccc1S(=O)(=O)Nc1cccc(C(=O)C=C(O)C(=O)O)c1` [Example 72]: the IC50 is 0.48 µM.

Regarding `O=C(O)C(O)=CC(=O)c1cccc(NS(=O)(=O)c2cccc(Cl)c2Cl)c1` [Example 118], the IC50 amounted to 0.2 µM.

In the case of `O=C(O)C(O)=CC(=O)c1cccc(-c2ccccc2)c1` [Example 3], the IC50 turned out to be 27.9 µM.

For the compound `O=C(O)C(O)=CC(=O)c1cccc(OCc2ccccc2C(=O)O)c1` [Example 90], the IC50 was found to be 1.8 µM.

For `O=C(O)C(O)=CC(=O)c1cccc(NS(=O)(=O)c2cccc(Cl)c2)c1` [Example 131], the IC50 is 0.78 µM.

On to `O=C(O)C(O)=CC(=O)c1cccn1Cc1ccc2ccccc2c1` [Example 188], for which the IC50 came out at 12.7 µM.

Consider `O=C(O)C(O)=CC(=O)C1(c2ccccc2)CCN(S(=O)(=O)c2cc(Cl)c(Cl)cc2Cl)CC1` [Example 251], for which the IC50 turned out to be 21 µM.

Consider `O=C(O)C(O)=CC(=O)c1ccc(F)cc1` [Example 163], for which the IC50 is 26 µM.

For the compound `COc1ccc(Cl)cc1S(=O)(=O)Nc1cccc(C(=O)C=C(O)C(=O)O)c1` [Example 129], the IC50 worked out at 1.6 µM.

As to `O=C(O)C(O)=CC(=O)c1ccsc1` [Example 222], the IC50 was 4 µM.

Consider `N#CCCCOc1ccc(OCCCC#N)c(C(=O)C=C(O)C(=O)O)c1` [Example 35], for which the IC50 is 6.1 µM.

As to `O=C(O)C(O)=CC(=O)c1ccccc1Oc1ccc(Cl)cc1` [Example 38], the IC50 worked out at 16 µM.

With `O=C(O)C(O)=CC(=O)c1ccccc1C(F)(F)F` [Example 6], the IC50 was 18 µM.

In the case of `N#Cc1ccccc1COc1cc(O)cc(C(=O)C=C(O)C(=O)O)c1` [Example 158], the IC50 amounted to 0.2 µM.

On to `O=C(O)C(O)=CC(=O)c1cccc(NC(=O)c2ccccc2)c1` [Example 66], for which the IC50 worked out at 11 µM.

As to `O=C(O)C(O)=CC(=O)c1ccsc1Cc1ccc(F)cc1` [Example 228], the IC50 is 17.8 µM.

For the compound `O=C(O)C(O)=CC(=O)c1cccn1CCCCOc1ccccc1` [Example 189], the IC50 came to 28 µM.

As for `O=C(O)C(O)=CC(=O)c1cccc(OCc2ccccc2Br)c1` [Example 89], the IC50 was found to be 3.3 µM.

`O=C(NCCc1ccccc1)Nc1cccc(C(=O)C=C(O)C(=O)O)c1` [Example 121]: the IC50 was 4 µM.

`O=C(O)C(O)=CC(=O)c1cccc(NS(=O)(=O)c2ccc3ccccc3c2)c1` [Example 114]: the IC50 amounted to 0.5 µM.

As for `O=C(O)C(O)=CC(=O)c1cccc(OCc2cccc(F)c2)c1` [Example 94], the IC50 is 5.8 µM.

As to `O=C(O)C(O)=CC(=O)c1cc(-c2cccnc2)cs1` [Example 197], the IC50 turned out to be 11 µM.

Turning to `Cc1cc(C)c(S(=O)(=O)Nc2cccc(C(=O)C=C(O)C(=O)O)c2)c(C)c1` [Example 146], the IC50 stood at 15 µM.

For `O=C(O)C(O)=CC(=O)c1cccc(Cc2cccc(Br)c2)c1` [Example 48], the IC50 was determined as 22 µM.

In the case of `O=C(O)C(O)=CC(=O)c1ccsc1Sc1cccc(Cl)c1` [Example 235], the IC50 came out at 7.5 µM.

`N#Cc1ccc(S(=O)(=O)Nc2cccc(C(=O)C=C(O)C(=O)O)c2)cc1` [Example 74]: the IC50 was determined as 3.6 µM.

As to `CC(C)COc1ccccc1C(=O)C=C(O)C(=O)O` [Example 32], the IC50 stood at 6.1 µM.

With `O=C(O)C(O)=CC(=O)c1ccccc1OCC1CCCCC1` [Example 9], the IC50 turned out to be 51 µM.

Take `Cc1ccc(C(=O)C=C(O)C(=O)O)c(C)c1` [Example 165]: the IC50 came to 2 µM.

With `O=C(O)C(O)=CC(=O)c1ccsc1Cc1ccc(Cl)cc1` [Example 231], the IC50 was found to be 9.4 µM.

For the compound `O=C(O)C(O)=CC(=O)c1cccc(NCc2ccccc2)c1` [Example 12], the IC50 came to 16.7 µM.

As for `N#Cc1cccc(Cn2ccc(C(=O)C=C(O)C(=O)O)c2)c1` [Example 220], the IC50 came out at 4.6 µM.

For `O=C(O)C(O)=CC(=O)c1ccsc1Cc1ccccc1Cl` [Example 233], the IC50 stood at 9.2 µM.

For `O=C(O)/C(O)=C/C(=O)C1(Cc2ccc(Cl)cc2)CCCN(S(=O)(=O)c2ccc(Br)cc2)C1` (centres unmarked) [Example 252], the IC50 is 61 µM.

For the compound `COc1cccc(COc2cccc(C(=O)C=C(O)C(=O)O)c2)c1` [Example 92], the IC50 was 1 µM.

`O=C(O)C(O)=CC(=O)c1cccc(OCc2ccccn2)c1` [Example 73]: the IC50 came to 5.6 µM.

Turning to `CS(=O)(=O)Nc1cccc(C(=O)C=C(O)C(=O)O)c1` [Example 75], the IC50 came out at 19.2 µM.

For the compound `N#Cc1ccc(-c2ccccc2)cc1COc1cccc(C(=O)C=C(O)C(=O)O)c1` [Example 116], the IC50 is 0.3 µM.

As for `O=C(O)C(O)=CC(=O)c1sccc1Cc1ccc(F)cc1` [Example 208], the IC50 was found to be 11.6 µM.

Consider `Cc1cc(Cl)cc(Cl)c1S(=O)(=O)Nc1cccc(C(=O)C=C(O)C(=O)O)c1` [Example 150], for which the IC50 came to 2.3 µM.

Consider `O=C(O)C(O)=CC(=O)c1cccc(OCc2cc(C(=O)O)ccc2Cl)c1` [Example 98], for which the IC50 was 1 µM.

`O=C(O)C(O)=CC(=O)c1cccc(OCc2ccc(-c3ccccc3)cc2)c1` [Example 96]: the IC50 came out at 50 µM.

Regarding `CC1=C(C(=O)C=C(O)C(=O)O)CCC1` [Example 255], the IC50 came out at 16.7 µM.

On to `O=C(O)C(O)=CC(=O)c1cccc(N2CCCC2)c1` [Example 15], for which the IC50 came out at 83.5 µM.

As for `N#CCCCOc1ccc(Br)cc1C(=O)C=C(O)C(=O)O` [Example 54], the IC50 is 2.3 µM.

For `O=C(O)C(O)=CC(=O)C1=CCCCC1` [Example 254], the IC50 was found to be 14 µM.

`CC(C)(C)OC(=O)c1sccc1COc1cccc(C(=O)C=C(O)C(=O)O)c1` [Example 82]: the IC50 is 19 µM.

As to `O=C(O)C(O)=CC(=O)c1cccn1-c1ccc(F)cc1` [Example 177], the IC50 came to 25 µM.

Take `O=C(O)C(O)=CC(=O)c1ccsc1Cc1cccc(F)c1` [Example 229]: the IC50 turned out to be 80 µM.

Turning to `COc1cccc(OC)c1C(=O)C=C(O)C(=O)O` [Example 172], the IC50 was more than 50 µM.

For `O=C(O)C(O)=CC(=O)c1cccc(OC2CCCCC2)c1` [Example 11], the IC50 amounted to 7.08 µM.

Regarding `O=C(O)C(O)=CC(=O)c1cccc(OC/C=C/c2ccccc2)c1` [Example 83], the IC50 was 9.4 µM.

For the compound `O=C(O)C(O)=CC(=O)c1cccc(Cc2cccc(Cl)c2)c1` [Example 43], the IC50 worked out at 20 µM.

Staying with this assay, now noted: Tables IXa-IXc; unit inferred; read-out: HCV (IC50).
`O=C(O)C(O)=CC(=O)c1cccc(OCc2cc(-c3ccccc3)on2)c1` [Example 103]: the IC50 is 6 µM.

For the compound `O=C(O)C(O)=CC(=O)c1ccc(Br)s1` [Example 198], the IC50 was determined as 7.9 µM.

Take `N#Cc1ccccc1S(=O)(=O)Nc1cccc(C(=O)C=C(O)C(=O)O)c1` [Example 72]: the IC50 worked out at 0.48 µM.

On to `O=C(O)C(O)=CC(=O)c1cccc(OCc2ccccc2C(=O)O)c1` [Example 90], for which the IC50 was 1.8 µM.

With `N#Cc1ccccc1COc1cc(O)cc(C(=O)C=C(O)C(=O)O)c1` [Example 158], the IC50 was 0.2 µM.

For the compound `O=C(O)C(O)=CC(=O)c1cccc(NC(=O)c2ccccc2)c1` [Example 66], the IC50 worked out at 11 µM.

For the compound `Cc1ccc(C(=O)C=C(O)C(=O)O)c(C)c1` [Example 165], the IC50 came to 2 µM.

As for `N#Cc1ccc(-c2ccccc2)cc1COc1cccc(C(=O)C=C(O)C(=O)O)c1` [Example 116], the IC50 was found to be 0.3 µM.
